Measured values reported in US4837228A, “Antiinflammatory and antimicrobial compounds and compositions” (The University of Mississippi, priority 1982, dated 1989).
Values after ≈ are worked out from the molar mass of the structure shown. “Also recorded” adds a separate entry of the source. Like-named read-outs stand apart in the source and are kept apart here.

Key:
[1] = tested on: Aspergillus niger; experiment: agar well diffusion assay, A. niger; format: cell-based; conditions: from edge of agar well
Procedure: (§1) Both qualitative and quantitative screens were performed. Qualitative screening was accomplished using the agar well diffusion assay technque while quantitative screening was accomplished by the two-fold (broth) serial dilution method to determine the minimum inhibitory concentration (MIC). Innoculation was accomplished with one loop-full of a 1:10 dilution of the 24-hour-old broth culture, (fungal cultures and M.smegmatis more often required 48 to 72 hours of incubation) of the test organisms in sterile water. Streptomycin sulfate was used as a positive control for antibacterial activity while amphitericin B was used as an antifungal positive control. Organisms utilized in the screens included gram-positive, gram-negative, and acid-fast bacteria as well as different types of fungi. […] An intermediate type activity is seen where R is hydrogen. However, where R is lengthened up to C15 a decrease in activity was noted. Total saturation of the two double bonds in the compounds having a methyl side chain lead, in most cases, to an increase in both antifungal and antibacterial activity.

[2] = tested on: Escherichia coli; experiment: agar well diffusion assay, E. coli; format: cell-based; conditions: from edge of agar well
Procedure: as §1

[3] = tested on: Staphylococcus aureus; experiment: MIC, two-fold (broth) serial dilution, S. aureus; format: cell-based; conditions: Staphylococcus aureus, read-out: MIC
Summary of the method: (§2)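 Agar well diffusion gave qualitative activity, and two-fold broth serial dilution gave MIC. Inoculum was one loop of a 1:10 dilution of 24-h broth culture; fungi and M. smegmatis often needed 48–72 h incubation. Streptomycin sulfate and amphotericin B served as antibacterial and antifungal controls.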

[4] = CNS screen in unanesthetized mice; format: in vivo; conditions: doses as large as 800 mg/kg
[5] = tested on: carrageenan-induced rat paw edema; experiment: carrageenan-induced rat paw edema test, oral gavage; format: in vivo; parameters: key to mean difference in volume (MDV): ml; post-injection minus pre-injection mean paw volume; conditions: for inhibition at 120 mg/kg / inhibition at 240 mg/kg / inhibition at 480 mg/kg: Rattus norvegicus, po, Table 5; for inhibition at 120 mg/kg: read-out: inhibition of carrageenan-induced rat paw edema
Procedure: In the Rat Paw Edema Test, the rats utilized were divided into test groups of six to eight animals, weighed and marked so that individual rats could be identified; one hour before testing all rats were given a 700 mg/kg intraperitoneal injection of ethyl urethane in distilled water to render them tractable during testing. […] Negative control groups received the vehicle; while positive control groups received a dose of phenylbutazone (PBZ) as shown in Table II. Test compounds were given at doses of 60, 120, 240 and 480 mg/kg. The positive controls were given at 120 mg/kg and 60 mg/kg. Phenylbutazone was prepared for injection by suspending it in normal saline using Tween 60. The rats were then held in group cages for 30 minutes. The volume of the left hind paw was measured using a mercury displacement pleysmograph. The paw is dipped into the mercury until the mercury touches the line above the ankle. Mercury is then withdrawn until the mercury returns to its original level. The amount of mercury removed is measured in milliliters (ml). The mercury can be measured accurately to 0.01 ml. This left hind paw was then injected with 0.1 ml of a 5% w/v solution of viscous carageenan in normal saline. The injection was given between the metatarsal bones using a 27 gauge needle, and the rats then held in group cages for 3 hours. The volume of the left hind paws was measured again in the pleysmograph. The results were computed in the following manner:
a. A mean is taken for both the pre-injection and post-injection paw volume of each test group.
b. The mean difference in volume (MDV) for each test group is computed by subtracting the pre-injection means from the post-injection mean.
c. The percent of control is computed for each test [formula] The percent of control is used to compare the efficacy of the various drug treatments.
d. The percent increase in paw volume is calculated for each group as: [formula] The percent increase is used to compare the amount of edma observed in one experiment to the amount of edma observed in other experiments.
[…] The test was conducted twice, once with nonfasted rats and once with rats that had been fasted during the 24 hour period prior to dosing. The 60 mg/kg phenylbutazone control group was not used in the test with fasted animals. Tween 60 in normal saline was the vehicle control for the non-fasted rats and normal saline was the vehicle control for the fasted rats.

[6] = tested on: Staphylococcus aureus; experiment: agar well diffusion assay, S. aureus; format: cell-based; conditions: from edge of agar well
Procedure: as §1

[7] = tested on: Saccharomyces cerevisiae; experiment: agar well diffusion assay, S. cerevisiae; format: cell-based; conditions: from edge of agar well
Procedure: as §1

[8] = deaths and adverse effects observed in the rat paw edema test; format: in vivo; conditions: 480 mg/kg i.p. plus ethyl urethane i.p.
Procedure: In the Rat Paw Edema Test, the rats utilized were divided into test groups of six to eight animals, weighed and marked so that individual rats could be identified; one hour before testing all rats were given a 700 mg/kg intraperitoneal injection of ethyl urethane in distilled water to render them tractable during testing. A circle was drawn, with a felt-tipped marker, around the hind leg of each rat just above the ankle, and each rat was dosed with a test or control compound by intraperitoneal injection. Negative control groups received the vehicle; while positive control groups received a dose of phenylbutazone (PBZ) as shown in Table II. Test compounds were given at doses of 60, 120, 240 and 480 mg/kg. The positive controls were given at 120 mg/kg and 60 mg/kg. Phenylbutazone was prepared for injection by suspending it in normal saline using Tween 60. The rats were then held in group cages for 30 minutes. The volume of the left hind paw was measured using a mercury displacement pleysmograph. The paw is dipped into the mercury until the mercury touches the line above the ankle. Mercury is then withdrawn until the mercury returns to its original level. The amount of mercury removed is measured in milliliters (ml). The mercury can be measured accurately to 0.01 ml. This left hind paw was then injected with 0.1 ml of a 5% w/v solution of viscous carageenan in normal saline. The injection was given between the metatarsal bones using a 27 gauge needle, and the rats then held in group cages for 3 hours. The volume of the left hind paws was measured again in the pleysmograph. The results were computed in the following manner:
The eighth rat died within 24 hours of injection.

[9] = tested on: Saccharomyces cerevisiae; experiment: MIC, two-fold (broth) serial dilution, S. cerevisiae; format: cell-based
Summary of the method: as §2

[10] = tested on: Mycobacterium smegmatis; experiment: agar well diffusion assay, M. smegmatis; format: cell-based; conditions: from edge of agar well
Procedure: as §1

[11] = Table 6, 120 mg/kg oral, non-fasted rats
[12] = Table 6, 240 mg/kg oral, non-fasted rats
[13] = Table 6, 480 mg/kg oral, non-fasted rats
[14] = Table 7, 120 mg/kg oral, fasted rats, doses approximate
[15] = Table 7, 240 mg/kg oral, fasted rats, doses approximate
[16] = Table 7, 480 mg/kg oral (given following saline infusion), fasted rats, doses approximate

## CCCCCc1cc(O)c2c(c1)OC(C)(CCC=C(C)C)C=C2 (stereo not shown) [CBC (I), 2-methyl-2(4'methyl-pent-3'-enyl)-5-hydroxy-7-pentyl chromene]
[1]; 48 hr
  width of inhibition zone: 2. mm
[1]; 72 hr
  width of inhibition zone: 2. mm
[2]; 24 hr
  width of inhibition zone: 5. mm
[2]; 48 hr
  width of inhibition zone: 5. mm
[3]; 24 h
  MIC: 1.56 µg/mL (≈ 4.96 µM)
[3]; 48 h
  MIC: 1.56 µg/mL (≈ 4.96 µM)
[4]
  effects on the CNS screen: No significant effects
[5]; 120 mg/kg oral, fasted rats, N.S.
  inhibition at 120 mg/kg: 35%
[5]; 120 mg/kg oral, nonfasted rats
  inhibition at 120 mg/kg: 21%
[5]; 240 mg/kg oral, fasted rats, * P = 0.01
  inhibition at 240 mg/kg: 67%
[5]; 240 mg/kg oral, nonfasted rats, ** P = 0.05
  inhibition at 240 mg/kg: 34%
[5]; 480 mg/kg oral, fasted rats, ** P = 0.05
  inhibition at 480 mg/kg: 55%
[5]; 480 mg/kg oral, nonfasted rats, * P = 0.01
  inhibition at 480 mg/kg: 50%
[5]; [11]
  mean difference in volume (MDV): 0.496
  percent increase in paw volume: 41.311%
  percent of control: 79.400%
[5]; [12]
  mean difference in volume (MDV): 0.412
  percent increase in paw volume: 38.372%
  percent of control: 66.000%
[5]; [13]
  mean difference in volume (MDV): 0.315
  percent increase in paw volume: 29.200%
  percent of control: 50.400%
[5]; [14]
  mean difference in volume (MDV): 0.409
  percent increase in paw volume: 31.382%
  percent of control: 65.400%
[5]; [15]
  mean difference in volume (MDV): 0.209
  percent increase in paw volume: 15.981%
  percent of control: 53.400%
[5]; [16]
  mean difference in volume (MDV): 0.281
  percent increase in paw volume: 22.321%
  percent of control: 45.000%
[5]; oral, listed as CBC
  antiinflammatory activity compared with PBZ in words: about equally effective at 120 mg/kg in the fasted rats; also recorded: generally more effective in inhibiting edema than was PBZ
[6]; 24 hr
  width of inhibition zone: 10. mm
[6]; 48 hr
  width of inhibition zone: 10. mm
[7]; 48 hr
  width of inhibition zone: 8. mm
[7]; 72 hr
  width of inhibition zone: 8. mm
[8]
  deaths: All the animals receiving 480 mg/kg died within 2 days of injection
[9]; 48 hr
  MIC: 25.0 µg/mL (≈ 79.5 µM)
[9]; 72 hr
  MIC: 50.0 µg/mL (≈ 159 µM)
[9]; Saccharomyces cerevisiae, 48 h, read-out: MIC
  MIC: 25 µg/mL (≈ 79.5 µM)
[9]; Saccharomyces cerevisiae, 72 h, read-out: MIC
  MIC: 50 µg/mL (≈ 159 µM)
[10]; 24 hr
  width of inhibition zone: 15. mm
[10]; 48 hr
  width of inhibition zone: 12. mm
